Results from patent US20110236874A1, “METHOD FOR FORMATION OF RENAL TUBULES” (priority 2008, published 2011).
Entries after “also recorded” stand apart in the source; their conditions may differ.

Legend:
[1] = system: Human proximal tubules formed on 2D solid surfaces; assay: Transport assays with fluorescent substrates in tubules formed on 2D solid surfaces; type: cell-based; conditions: 20 h incubation, lucifer yellow 80 μM, rhodamine 123 10 μM, 5,6-carboxyfluorescein 5 μM, BODIPY FL verapamil 5 μM
Procedure: Transport assays: Tubules formed 1-2 weeks after seeding were cultivated in phenol red-free medium supplemented with 80 μM of lucifer yellow (Sigma Aldrich Chemical Corp, Singapore), 10 μM of rhodamine 123 (Invitrogen, Singapore), 5 μM of 5,6-carboxydichlorofluorescein diacetate (5,6-carboxyfluorescein) (Invitrogen) or 5 μM of BODIPY FL verapmil (Invitrogen). Tubules were fixed after 20 h of incubation, and subsequently stained with 4′,6′-diamidino-2′-phenylindole (DAPI).
FIG. 11: Organic anion transport. Human proximal tubules formed on 2D solid surfaces were incubated for 20 h with the organic anions lucifer yellow (A, B; green), rhodamine 123 (C; red), 5,6-carboxyfluorescein (D; green) and BODIPY FL verapamil (F; green). Tubules are fixed before imaging, and the cell nuclei are counterstained with DAPI (blue). […] The arrowhead points to a region that is enlarged in the inset. The DAPI-stained nuclei of the outer cell layer are on the right in the inset. […] Scale bars: 100 μm.

[2] = system: primary rabbit renal proximal tubule cells; conditions: added to confluent rabbit cell cultures for at least 72 hours; TGF-β1 10 ng/ml, EGF 1 nM, RA 0.1 μM; cited from earlier work
[3] = system: primary human renal proximal tubule cells (HPTCs); assay: TGF-β1 treatment of confluent HPTC patches in Humes basal medium; type: cell-based; conditions: 10 ng/ml TGF-β1 on confluent patches in Humes basal medium
Procedure: The Humes et al. method used primary rabbit proximal tubule cells. The references indicate three factors are necessary in the growth medium for 2D tubulogenesis: (i) transforming growth factor (TGF)-β1; (ii) epidermal growth factor (EGF); and all-trans retinoic acid (RA). The method involves cultivation of primary rabbit renal proximal tubule cells in the following medium: Dulbecco's modified Eagle's:Ham's F-12 media (1:1, v/v) containing L-glutamine, penicillin, streptomycin, 50 nM hydrocortisone, 5 μg/ml of insulin, and 5 μg/ml of transferrin, referred to herein as Humes basal medium.
In a second set of experiments cells were again cultivated in Humes basal medium. In accordance with the previous results, massive cell death occurred although some cells survived and formed some confluent patches after 2 weeks. By this time cell growth was very slow and overall confluency could not be achieved. However, the confluent patches were treated with 10 ng/ml TGF-β1 in accordance with the Humes et al. method.

[4] = system: primary human renal proximal tubule cells (HPTCs); assay: TGF-β1 treatment of confluent HPTC monolayers in complete HPTC medium; type: cell-based
Procedure: Cell culture: Different batches of HPTCs were obtained from ScienCell Research Laboratories (Carlsbad, Calif., USA). Cells were cultivated in basal epithelial cell medium supplemented with 2% fetal bovine serum (FBS) and 1% epithelial cell growth supplement (ScienCell Research Laboratories). In some experiments, TGF-β1 (R&D Systems, Minneapolis, Minn., USA) was added at a concentration of 10 ng/ml after monolayer formation.
FIG. 17: Growth factor expression and effects of TGF-β1. (A) The expression levels of TGF-β1, α-SMA, LIF, FGF2, KGF and HGF are monitored over a period of 4 weeks. […] Panels B-D show the cells treated for 3 days with 10 ng/ml TGF-β1 after monolayer formation. […] Scale bar: 500
A fourth experimental series was performed with our HPTC medium containing all supplements including FBS. HPTCs were grown to confluency and then treated with TGF-β1 (10 ng/ml; same concentration as used for the rabbit cells). After three days massive cords and aggregates of cells with an elongated, myofibroblastic morphology had formed in 6/6 wells. Although in the complete HPTC medium with FBS, cords and cell aggregates also form without the addition of extra TGF-β1, such structures formed more consistently after addition of TGF-β1. […]

| Molecule | localisation of the fluorescent substrate after incubation (transport across tubular epithelium) [1] | structures formed from confluent monolayer [2] | other results |
| --- | --- | --- | --- |
| BODIPY FL verapamil | enriched in the cytoplasm of tubular and monolayer cells |  | localisation of the fluorescent substrate after incubation (transport across tubular epithelium) ([1]; listed as BOPIPY FL verapamil): became enriched within the cells |
| TGF-β1: transforming growth factor β1 (R&D Systems), 10 ng/ml |  | formation of solid aggregates of adherent cells (no lumen) | effect on the monolayer, cord and tubule formation [3]: no obvious effect on the monolayer and no cord and tubule formation was observed; wells with massive cords and aggregates of cells of myofibroblastic morphology ([4]; 10 ng/ml TGF-β1, after three days, complete HPTC medium with FBS): 6/6; effect on the monolayer ([4]; 10 ng/ml TGF-β1 for 3 days after monolayer formation): induces rearrangements leading to the formation of condensed stripes of cells and areas devoid of cells; also recorded: rearrangement of the monolayer into a condensed stripe of cells and to the formation of cell aggregates |
| rhodamine 123 | became enriched in the tubular lumen |  | localisation of the fluorescent substrate after incubation (transport across tubular epithelium) ([1]; listed as Rhodamine 123): enriched in the tubular lumen |
| lucifer yellow | the lumen is strongly labeled; also recorded: became enriched in the tubular lumen |  |  |
| CC1=C(/C=C/C(C)=C/C=C/C(C)=C/C(=O)O)C(C)(C)CCC1 [RA, all-trans retinoic acid] |  | no dramatic effects on the monolayer |  |
| 5,6-carboxydichlorofluorescein diacetate [5,6-carboxyfluorescein] | enriched in the tubular interior; also recorded: became enriched in the tubular lumen |  |  |
| EGF: epidermal growth factor (NSDSECPLSHDGYCLHDGVCMYIEALDKYACNCVVGYIGERCQYRDLKWWELR; UniProt P01133 971-1023, looked up) |  | no dramatic effects on the monolayer |  |
